Results: ChEMBL document CHEMBL1135368, “The discovery of small molecule carbamates as potent dual alpha(4)beta(1)/alpha(4)beta(7) integrin antagonists” (Bioorg Med Chem Lett, 2002)
Starred links: 1 amine or outer side, 2 acyl side, 3 side chain; linkers in the order of their positions; H or OH if unused. Residues, ends and D or L forms follow the SMILES beside them. Groups on a side chain read outwards from the residue. *: point of attachment. Pyrrolidide = C1CCN(*)C1; CO = O=C([*:1])[*:2]; Ms = CS(=O)(=O)*

Assays:
Rattus norvegicus [1] = test: Plasma clearance value at intravenous dose of 1 mg/kg (2 mg/kg po (cassette dosing)) in Dawley rat; assay type: ADME, organism-based; design: dose 1 mg/kg; settings: in vivo
[2] = Tested for plasma half life period in rat (0-8 hr); assay type: ADME, organism-based
Integrin alpha-4/beta-7 [3] = target: T1, Integrin alpha-4/beta-7 (Homo sapiens, UniProt P13612+P26010); test: Alpha4-beta7 integrin binding affinity was determined in duplicate by a radioligand binding assay using [125I]-VCAM-Ig and a suspension of RPMI-8866 cells (a human B cell line alpha-4-beta-1-beta-7+); assay type: cell-based
T1 sequence (P13612 whole entry): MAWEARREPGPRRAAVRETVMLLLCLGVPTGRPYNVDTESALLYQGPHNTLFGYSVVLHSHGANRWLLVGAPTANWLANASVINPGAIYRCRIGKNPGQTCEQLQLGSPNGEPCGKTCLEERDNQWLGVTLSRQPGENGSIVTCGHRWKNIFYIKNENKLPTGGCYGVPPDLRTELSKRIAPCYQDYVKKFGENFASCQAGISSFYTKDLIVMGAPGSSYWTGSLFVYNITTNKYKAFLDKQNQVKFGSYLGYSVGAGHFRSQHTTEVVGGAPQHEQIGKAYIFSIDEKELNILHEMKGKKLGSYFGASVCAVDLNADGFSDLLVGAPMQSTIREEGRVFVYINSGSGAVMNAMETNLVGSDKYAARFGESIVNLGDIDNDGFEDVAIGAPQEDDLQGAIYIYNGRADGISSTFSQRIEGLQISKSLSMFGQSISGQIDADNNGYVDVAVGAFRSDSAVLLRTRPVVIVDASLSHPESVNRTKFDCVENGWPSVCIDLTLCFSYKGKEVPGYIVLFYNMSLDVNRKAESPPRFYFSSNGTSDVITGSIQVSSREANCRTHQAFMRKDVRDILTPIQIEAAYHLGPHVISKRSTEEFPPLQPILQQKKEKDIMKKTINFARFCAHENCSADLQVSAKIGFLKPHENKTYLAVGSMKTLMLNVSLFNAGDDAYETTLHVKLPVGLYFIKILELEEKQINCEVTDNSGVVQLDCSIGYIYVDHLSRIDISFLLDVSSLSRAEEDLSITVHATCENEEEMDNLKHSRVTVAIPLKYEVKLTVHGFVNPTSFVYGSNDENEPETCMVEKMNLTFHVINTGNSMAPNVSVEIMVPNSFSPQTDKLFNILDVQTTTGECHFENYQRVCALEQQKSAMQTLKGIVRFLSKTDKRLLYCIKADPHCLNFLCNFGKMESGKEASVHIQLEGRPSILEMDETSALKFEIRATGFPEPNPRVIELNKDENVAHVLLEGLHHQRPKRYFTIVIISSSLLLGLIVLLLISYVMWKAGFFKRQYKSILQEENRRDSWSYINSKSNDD
T1 sequence (P26010 whole entry): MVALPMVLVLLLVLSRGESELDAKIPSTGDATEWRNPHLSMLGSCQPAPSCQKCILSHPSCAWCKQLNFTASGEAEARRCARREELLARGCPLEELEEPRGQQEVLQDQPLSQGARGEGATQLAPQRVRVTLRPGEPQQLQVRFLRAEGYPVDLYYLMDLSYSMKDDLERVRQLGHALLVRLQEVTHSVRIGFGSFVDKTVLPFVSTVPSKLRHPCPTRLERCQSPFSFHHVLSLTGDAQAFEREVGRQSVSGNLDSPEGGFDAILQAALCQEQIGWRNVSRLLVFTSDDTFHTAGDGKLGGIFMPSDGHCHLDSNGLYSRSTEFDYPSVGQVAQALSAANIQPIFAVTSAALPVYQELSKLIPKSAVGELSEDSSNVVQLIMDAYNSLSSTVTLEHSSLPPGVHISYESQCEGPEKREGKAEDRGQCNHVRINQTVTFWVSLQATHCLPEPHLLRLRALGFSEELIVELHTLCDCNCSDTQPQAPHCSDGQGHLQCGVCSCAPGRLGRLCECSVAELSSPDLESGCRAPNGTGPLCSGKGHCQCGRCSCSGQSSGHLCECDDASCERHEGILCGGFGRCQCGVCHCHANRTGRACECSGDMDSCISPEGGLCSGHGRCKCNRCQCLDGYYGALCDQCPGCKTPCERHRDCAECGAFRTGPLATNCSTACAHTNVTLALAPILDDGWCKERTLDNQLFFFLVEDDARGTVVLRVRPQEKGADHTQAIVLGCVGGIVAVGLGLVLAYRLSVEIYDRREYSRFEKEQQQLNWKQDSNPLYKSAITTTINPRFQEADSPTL

Integrin alpha-4/beta-1 = Integrin alpha-4/beta-1 (Homo sapiens, UniProt P05556+P13612); test: Alpha4-beta1 integrin binding affinity was assessed by measuring the reduction in binding of [125I]VCAM-Ig to a suspension of Jurkat cells (a human T cell line alpha-4-beta-1-beta-7); assay type: cell-based
Integrin alpha-4/beta-7 [4] = target: T1, Integrin alpha-4/beta-7; test: Inhibition of [125I]VCAM-Ig binding to Alpha4-beta7 integrin of RPMI-8866 cells; assay type: cell-based
Integrin alpha-4/beta-7 [5] = target: T1, Integrin alpha-4/beta-7; test: Inhibition of [125I]VCAM-Ig binding to Alpha4-beta7 integrin of RPMI-8866 cells at […] (inactive); assay type: cell-based
Rattus norvegicus [6] = test: Plasma clearance value at intravenous dose of 1 mg/kg (2 mg/kg po (cassette dosing) in Dawley rat; assay type: ADME, organism-based; design: dose 1 mg/kg; settings: in vivo

Integrin alpha-4/beta-1, sequence (P05556 whole entry, one chain of several): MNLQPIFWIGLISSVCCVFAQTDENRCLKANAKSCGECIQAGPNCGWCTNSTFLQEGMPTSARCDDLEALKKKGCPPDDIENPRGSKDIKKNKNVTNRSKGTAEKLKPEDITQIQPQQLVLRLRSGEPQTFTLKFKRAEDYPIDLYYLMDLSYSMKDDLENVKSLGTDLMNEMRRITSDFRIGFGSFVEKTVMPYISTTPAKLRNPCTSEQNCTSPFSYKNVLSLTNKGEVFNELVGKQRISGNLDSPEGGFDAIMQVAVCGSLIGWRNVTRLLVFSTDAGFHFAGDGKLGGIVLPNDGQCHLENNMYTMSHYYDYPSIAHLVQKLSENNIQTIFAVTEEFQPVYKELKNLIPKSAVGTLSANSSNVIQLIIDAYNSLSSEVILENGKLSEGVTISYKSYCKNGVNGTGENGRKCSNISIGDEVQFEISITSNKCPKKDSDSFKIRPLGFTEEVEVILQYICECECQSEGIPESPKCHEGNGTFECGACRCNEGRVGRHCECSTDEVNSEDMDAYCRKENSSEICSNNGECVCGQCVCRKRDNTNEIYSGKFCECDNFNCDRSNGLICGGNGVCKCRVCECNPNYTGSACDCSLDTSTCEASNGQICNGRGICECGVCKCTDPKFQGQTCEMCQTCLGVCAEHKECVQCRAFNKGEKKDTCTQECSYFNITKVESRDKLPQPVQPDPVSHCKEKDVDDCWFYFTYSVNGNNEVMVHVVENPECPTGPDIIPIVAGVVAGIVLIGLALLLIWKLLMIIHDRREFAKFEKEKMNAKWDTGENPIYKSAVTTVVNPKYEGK

Row | IC50 (Integrin alpha-4/beta-7 [3]) [nM] | IC50 (Integrin alpha-4/beta-1) [nM] | Structure (SMILES) | further results
1 | – | 0.37 | COc1ccc(C[C@H](NC(=O)[C@@H]2CCCN2S(=O)(=O)c2cc(Cl)cc(Cl)c2)C(=O)O)cc1 | IC50 (Integrin alpha-4/beta-7 [4]): 362 nM
2 | – | 0.41 | CC(C)(C)OC(=O)COc1cccc(C[C@H](NC(=O)[C@]2(C)CCCN2S(=O)(=O)c2cc(Cl)cc(Cl)c2)C(=O)O)c1 | IC50 (Integrin alpha-4/beta-7 [5]): Not Active
3 | – | 1.79 | CC(C)(C)Oc1cccc(C[C@H](NC(=O)[C@]2(C)CCCN2S(=O)(=O)c2cc(Cl)cc(Cl)c2)C(=O)O)c1 | IC50 (Integrin alpha-4/beta-7 [5]): Not Active
4 | – | 0.27 | CC(C)(C)Oc1ccc(C[C@H](NC(=O)[C@]2(C)CCCN2S(=O)(=O)c2cc(Cl)cc(Cl)c2)C(=O)O)cc1 | IC50 (Integrin alpha-4/beta-7 [4]): 647 nM
5 | – | 0.21 | CC(C)(C)Oc1ccc(C[C@H](NC(=O)[C@@H]2CCCN2S(=O)(=O)c2cc(Cl)cc(Cl)c2)C(=O)O)cc1 | IC50 (Integrin alpha-4/beta-7 [4]): 116 nM
6 | 62.4 | 0.22 | CC(C)N(C(=O)Oc1ccc(C[C@H](NC(=O)[C@]2(C)CCCN2S(=O)(=O)c2cc(Cl)cc(Cl)c2)C(=O)O)cc1)C(C)C | –
7 | – | 3.65 | C[C@@]1(C(=O)N[C@@H](Cc2cccc(OC(=O)N3CCCC3)c2)C(=O)O)CCCN1S(=O)(=O)c1cc(Cl)cc(Cl)c1 | IC50 (Integrin alpha-4/beta-7 [5]): Not Active
8 | 29.8 | 0.19 | CCN(CC)C(=O)Oc1ccc(C[C@H](NC(=O)[C@]2(C)CCCN2S(=O)(=O)c2cc(Cl)cc(Cl)c2)C(=O)O)cc1 | –
9 | 3.51 | 0.13 | C[C@@]1(C(=O)N[C@@H](Cc2ccc(OC(=O)N3CCOCC3)cc2)C(=O)O)CCCN1S(=O)(=O)c1cc(Cl)cc(Cl)c1 | Clp (Rattus norvegicus [1]): 50 mL/min/kg
10 | 211 | 0.13 | CC(C)(C)OC(=O)COc1ccc(C[C@H](NC(=O)[C@@H]2CCCN2S(=O)(=O)c2cc(Cl)cc(Cl)c2)C(=O)O)cc1 | –
11 | 5.26 | 0.17 | C[C@@]1(C(=O)N[C@@H](Cc2ccc(OC(=O)N3CCCC3)cc2)C(=O)O)CCCN1S(=O)(=O)c1cc(Cl)cc(Cl)c1 | Clp (Rattus norvegicus [6]): 27 mL/min/kg
12 | 51.4 | 0.18 | CC(=O)COc1ccc(C[C@H](NC(=O)[C@@H]2CCCN2S(=O)(=O)c2cc(Cl)cc(Cl)c2)C(=O)O)cc1 | –

Continued, compound first:

Row | Structure (SMILES) | IC50 (Integrin alpha-4/beta-7 [3]) [nM] | IC50 (Integrin alpha-4/beta-1) [nM] | further results
13 | O=C(O)[C@H](Cc1ccc(OC(=O)N2CCCC2)cc1)NC(=O)[C@@H]1CCCN1S(=O)(=O)c1ccccc1 | 2.83 | 0.14 | Clp (Rattus norvegicus [1]): 176 mL/min/kg; half-life [2]: 12 min
14 | O=C(O)[C@H](Cc1ccc(OCc2nnn[nH]2)cc1)NC(=O)[C@@H]1CCCN1S(=O)(=O)c1cc(Cl)cc(Cl)c1 | 166 | 0.21 | –
15 | COCCOc1ccc(C[C@H](NC(=O)[C@@H]2CCCN2S(=O)(=O)c2cc(Cl)cc(Cl)c2)C(=O)O)cc1 | 62.5 | 0.28 | –
16 | O=C(Oc1ccc(C[C@H](NC(=O)[C@@H]2CCCN2S(=O)(=O)c2cc(Cl)cc(Cl)c2)C(=O)O)cc1)C1CCCC1 | 58.6 | 0.22 | –
17 | O=C(O)[C@H](Cc1ccc(O)cc1)NC(=O)[C@@H]1CCCN1S(=O)(=O)c1cc(Cl)cc(Cl)c1 | – | 0.34 | IC50 (Integrin alpha-4/beta-7 [4]): 820 nM
18 | CCCCOc1ccc(C[C@H](NC(=O)[C@@H]2CCCN2S(=O)(=O)c2cc(Cl)cc(Cl)c2)C(=O)O)cc1 | – | 1.11 | IC50 (Integrin alpha-4/beta-7 [4]): 299 nM
19 | O=C(Oc1ccc(C[C@H](NC(=O)[C@@H]2CCCN2S(=O)(=O)c2cc(Cl)cc(Cl)c2)C(=O)O)cc1)c1ccccc1 | 43.2 | 0.45 | –
20 | O=C(Oc1ccc(C[C@H](NC(=O)[C@@H]2CCCN2S(=O)(=O)c2cc(Cl)cc(Cl)c2)C(=O)O)cc1)c1ccc[nH]1 | 13 | 0.26 | –
21 | O=C(O)[C@H](Cc1ccc(OCc2ccccc2)cc1)NC(=O)[C@@H]1CCCN1S(=O)(=O)c1cc(Cl)cc(Cl)c1 | 849 | 1.94 | –
22 | CN(C(=O)Oc1ccc(C[C@H](NC(=O)[C@]2(C)CCCN2S(=O)(=O)c2cc(Cl)cc(Cl)c2)C(=O)O)cc1)c1ccccc1 | 12.3 | 0.25 | Clp (Rattus norvegicus [1]): 38 mL/min/kg; half-life [2]: 12 min
23 | N#CCOc1ccc(C[C@H](NC(=O)[C@@H]2CCCN2S(=O)(=O)c2cc(Cl)cc(Cl)c2)C(=O)O)cc1 | 246 | 0.26 | –
24 | O=C(O)[C@H](Cc1ccc(OC(=O)N2CCCC2)cc1)NC(=O)[C@@H]1CCCN1S(=O)(=O)c1cc(Cl)cc(Cl)c1 | 1.92 | 0.13 | –
25 | CS(=O)(=O)N1CCC[C@H]1C(=O)N[C@@H](Cc1ccc(OC(=O)N2CCCC2)cc1)C(=O)O (Ms-Pro-Tyr([CO-Pyrrolidide])-OH) | 4.4 | 0.5 | –
